Broadly, the IC50 is the midpoint of a concentration-inhibition curve. One may read the CC50 as the concentration that lowers cell viability or growth by half.

We go through five compounds from publication PMC6272797, “Antitrypanosomal Acetylene Fatty Acid Derivatives from the Seeds of Porcelia macrocarpa (Annonaceae)” (Molecules, 2015).

Series [1] relates to T. cruzi trypomastigotes (Y strain). In words: Activity against T. cruzi trypomastigotes (MTT viability assay). It is filed as cell-based, Trypanosoma cruzi. Conditions: for SI (selectivity index): CC50 NCTC cells/IC50 trypomastigotes; for IC50: Trypanosoma cruzi, free trypomastigotes, read-out: IC50 T. cruzi trypomastigote; for IC50 / antitrypanosomal activity against T. cruzi trypomastigotes (in words): MTT; for antitrypanosomal activity against T. cruzi trypomastigotes (in words): in vitro. How it is done:
T. cruzi trypomastigotes (Y strain) were maintained in LLC-MK2 (ATCC CCL 7) cells using RPMI-1640 medium supplemented with 2% FBS at 37 °C and 5% CO2-humidified incubator [34].
Free trypomastigotes obtained from LLC-MK2 cultures were counted in a Neubauer hemocytometer and seeded at 1 × 10^6/well in 96-well microplates. Tested compounds were incubated to the highest concentration of 300 μg/mL for 24 h at 37 °C in a 5% CO2 humidified incubator; using benznidazole as standard drug. The viability of the trypomastigotes was verified by the MTT assay as previously described.
The data obtained represent the mean and standard deviation of duplicate samples from three independent assays. The IC50 and CC50 values were calculated using sigmoid dose-response curves in Graph Pad Prism 5.0 software (GraphPad Software, San Diego, CA, USA), and the 95% confidence intervals are included in parentheses.
On the technique in general: Tetrazolium assays rely on reduction of a dye to a coloured formazan, in cell work by metabolically active cells.

The nature of series [2]: Cytotoxicity against mammalian cells (MTT assay). Conditions: mouse, NCTC clone 929 cells. It is filed as cell-based. How it is done:
The 50% cytotoxic concentration (CC50) was determined in NCTC clone 929 cells. NCTC cells were seeded at 6 × 10^4 cells/well in 96-well microplates at 37 °C in a 5% CO2. […] The viability of the cells was determined by MTT assay at 570 nm. The Selectivity Index (SI) was determined considering the following equation: CC50 NCTC cells/IC50 trypomastigotes. […] The data obtained represent the mean and standard deviation of duplicate samples from three independent assays. The IC50 and CC50 values were calculated using sigmoid dose-response curves in Graph Pad Prism 5.0 software (GraphPad Software, San Diego, CA, USA), and the 95% confidence intervals are included in parentheses.

[3] abbreviates: 24 h, 24 h, highest concentration 300 µg/mL, CI95% in parentheses.
Where [4] appears, read: highest concentration 100 µg/mL, CI95% in parentheses.

Read-outs that look alike come from different tables or passages of the source.

As for `O=C(Cn1ccnc1[N+](=O)[O-])NCc1ccccc1` [Benznidazole, benznidazole, reference compound], in series [1], the “SI (selectivity index)” value came to 0.9. The half-maximal inhibitory concentration (IC50) in series [1] (setting [3]) amounted to 139 µg/mL; in series [1] (24 h, 24 h), 534 µM. Further, the CC50 at 48 h came to 484 µM in series [2] and 126 µg/mL in series [2] (setting [4]).
On to `CCCC#CC#CCCCCCCCCCCC(=O)O` [Compound 1, 12,14-octadecadiynoic acid], for which, in series [1], the “SI (selectivity index)” value is 4.1. Also, the half-inhibitory concentration (IC50) in series [1] (setting [3]) came out at 10.7 µg/mL; in series [1] (24 h, 24 h) it was 38.8 µM. Also, the “trypomastigote forms of T. cruzi killed” value in series [1] (at the highest tested concentration (300 µg/mL), 24 h) was 100%. Also, the “effectiveness relative to the standard drug benznidazole” value in series [1] (comparison of IC50 against trypomastigotes) was “approximately ten times more effective”. Also, in series [1], the “antitrypanosomal activity against T. cruzi trypomastigotes (in words)” value is reported as “displayed in vitro activity”. Also, the 50% cytotoxic concentration (CC50) at 48 h in series [2] stood at 160 µM; in series [2] (setting [4]) it was 44.3 µg/mL.
`CCCCCCCCCCCCCCCCCC(=O)O` [Compound 1a, octadecanoic acid]: the 50% inhibitory concentration (IC50) in series [1] (setting [3]) was over 300 µg/mL.
For `CCCC#CC#CCCCCCCCCCCC(=O)OCC(COC(=O)CCCCCCCCCCC#CC#CCCC)OC(=O)CCCCCCC/C=C\CCCCCCCC` [Compound 2, α,α'-dimacrocarpoyl-β-oleylglycerol], the half-maximal inhibitory concentration (IC50) in series [1] (setting [3]) is over 300 µg/mL. The “antitrypanosomal activity against T. cruzi trypomastigotes (in words)” value in series [1] was “inactive”.
For `CCCC#CC#CCCCCCCCCCCC(=O)OCC(O)COC(=O)CCCCCCC/C=C\CCCCCCCC` (stereo not drawn) [Compound 3, α-macrocarpoyl-α'-oleylglycerol] the same measures were over 300 µg/mL and “inactive”.
